In brackets after ≈: the same amount, converted by molar mass. Like-named read-outs stand apart in the source and are kept apart here.
What was measured:
[1] = tested on: E. coli, Acinetobacter baumannii, Klebsiella pneumoniae, Enterobacter cloacae, and Pseudomonas aeruginosa; assay: Antibiotic susceptibility test (microdilution broth), expanded panel of Gram-negative pathogens; assay type: cell-based; conditions: for activity against expanded panel of Gram-negative pathogens (in words): laboratory strains and clinical isolates of ESKAPE pathogens
Protocol: (§1) 6DNM and its derivatives were further evaluated against an expanded panel of Gram-negative pathogens, laboratory strains and clinical isolates of ESKAPE pathogens E. coli, Acinetobacter baumannii, Klebsiella pneumoniae, Enterobacter cloacae, and Pseudomonas aeruginosa (Table 1 of FIG. 19).
(§2) Susceptibility testing was performed in triplicate, using the microdilution broth method as outlined by the Clinical and Laboratory Standards Institute. Mueller Hinton (MH) broth was used.

E. coli MG1655 [2] = assay: Accumulation assay in whole-cell E. coli, LC-MS/MS quantification; conditions: for accumulation in E. coli: E. coli MG1655 whole cells, 37° C., LC-MS/MS; for accumulation in E. coli / accumulation in E. coli (in words): 50 μM compound, 10 minutes; for accumulation in E. coli (in words): E. coli whole cells; for accumulation upon co-treatment with colistin: E. coli, 6.0 μM colistin sulfate added before compound
Description: Antimicrob. Agents Chemother. 36, 2622-2627, (1992); Davis, T. D., Gerry, C. J. & Tan, D. S. General platform for systematic quantitative evaluation of small-molecule permeability in bacteria. ACS Chem. Biol. 9, 2535-2544, (2014); and Cai, H., Rose, K., Liang, L. H., Dunham, S. & Stover, C. Development of a liquid chromatography/mass spectrometry-based drug accumulation assay in Pseudomonas aeruginosa. Anal. Biochem. 385, 321-325, (2009); with LC-MS/MS used to quantify the accumulation of each compound. E. coli MG1655 was utilized for these experiments as this strain has been only minimally altered from its K-12 progenitor. To ensure the assay was reporting on compound accumulation, as opposed to non-specific affinity for the outer membrane, several control experiments were conducted. The assay method was evaluated with antibiotics that have known high or low levels of accumulation, based on published accumulation data and antibacterial activity against E. coli. […] Colistin is known to potentiate the activity of low-accumulating antibiotics by aiding the diffusion of lipophilic compounds across the membrane.
For each replicate, 2.5 mL of an overnight culture of E. coli was diluted into 250 mL of fresh Luria Bertani (LB) broth (Lennox) and grown at 37° C. with shaking to an OD600=0.55. The bacteria were pelleted at 3,220 rcf for 10 minutes at 4° C. and the supernatant was discarded. The pellets were re-suspended in 40 mL of phosphate buffered saline (PBS) and pelleted as before, and the supernatant was discarded. The pellets were re-suspended in 8.8 mL of fresh PBS and aliquoted into ten 1.5 mL eppendorf tubes (875 μL each). The number of colony forming units (CFUs) was determined via a calibration curve. The samples were equilibrated at 37° C. with shaking for 5 minutes, compound was added ([final]=50 μM), and then samples were incubated at 37° C. with shaking for 10 minutes. […] After incubation, 800 μL of the cultures were carefully layered on 700 μL of silicone oil (9:1 AR20/Sigma High Temperature, cooled to −78° C.). Bacteria were pelleted through the oil by centrifuging at 13,000 rcf for 2 minutes at room temperature (supernatant remains above the oil); the supernatant and oil were then removed by pipetting. To lyse the samples, each pellet was dissolved in 200 μL of water, and then they were subjected to three freeze-thaw cycle of three minutes in liquid nitrogen followed by three minutes in a water bath at 65° C. The lysates were pelleted at 13,000 rcf for 2 minutes at room temperature and the supernatant was collected (180 μL). The debris was re-suspended in 100 μL of methanol and pelleted as before. The supernatants were removed and combined with the previous supernatants collected. Finally, remaining debris was removed by centrifuging at 20,000 rcf for 10 minutes at room temperature. Supernatants were analyzed by LC-MS/MS.
Samples were analyzed with the 5500 QTRAP LC/MS/MS system (AB Sciex, Foster City, CA) with a 1200 series HPLC system (Agilent Technologies, Santa Clara, CA) including a degasser, an autosampler, and a binary pump. The LC separation was performed on an Agilent SB-Aq column (4.6×50 mm, 5 μm) (Agilent Technologies, Santa Clara, CA) with mobile phase A (0.1% formic acid in water) and mobile phase B (0.1% formic acid in acetonitrile). The flow rate was 0.3 mL/min. The linear gradient was as follows: 0-3 min, 100% A; 10-15 min, 2% A; 15.5-21 min, 100% A. The autosampler was set at 5° C. The injection volume was 15 μL. Mass spectra were acquired with both positive electrospray ionization (ESI) at the ion spray voltage of 5500 V and negative ESI at the ion spray voltage of −4500 V. The source temperature was 450° C. The curtain gas, ion source gas 1, and ion source gas 2 were 33, 50, and 65, respectively.

[3] = tested on: ΔompR strain of E. coli (OmpF and OmpC knockout) vs parental E. coli BW25113
Description: A ΔompR strain of E. coli from the KEIO knockout collection was therefore chosen to effectively knockout both OmpF and OmpC (knockout was validated by analyzing the outer membrane proteins of the ΔompR strain compared to the parental strain, data not shown).

E. coli (ATCC BAA-2469) = assay: Antibiotic susceptibility test (microdilution broth), NDM-1 producing E. coli clinical isolate; assay type: cell-based; conditions: Escherichia coli, ATCCBAA2469, read-out: MIC against multi-drug resistant NDM-1 producing E. coli ATCC BAA-2469
Protocol: as §1, §2

E. coli MG1655 [4] = assay: Antibiotic susceptibility test (microdilution broth), E. coli MG1655; assay type: cell-based, Escherichia coli; conditions: for MIC: Escherichia coli
Protocol: as §1, §2

Staphylococcus aureus = assay: Antibiotic susceptibility test (microdilution broth), S. aureus; assay type: cell-based

SMILES: Cc1cc(=O)n(C)c2c3c4c(cc12)c(C)cc(=O)n4C(CN)CO3 (centres unmarked) [Compound 6DNM-NH3]
- activity against other clinical isolates of E. coli, A. baumannii, K. pneumonia, and E. cloacae (in words) ([1]; clinical isolates): good activity against most of the other clinical isolates
- activity against expanded panel of Gram-negative pathogens (in words) [1]: antibacterial activity against all of these Gram-negative pathogens except P. aeruginosa
- accumulation in E. coli (E. coli MG1655 [2]): 1114 nmol/10^12 CFUs
- accumulation in ΔompR strain compared to parental/WT strain [3]: decrease in accumulation
- MIC (E. coli (ATCC BAA-2469)): 4 µg/mL (≈ 12.3 µM)
- MIC (E. coli MG1655 [4]; MG1655, microdilution broth, MH broth, read-out: MIC against E. coli MG1655): 0.5 µg/mL (≈ 1.54 µM)
- activity against S. aureus (in words) (Staphylococcus aureus): retains activity

SMILES: CC(=O)NCC1COc2c3c(cc4c(C)cc(=O)n1c24)c(C)cc(=O)n3C (centres unmarked) [Compound 6DNM-amide]
- accumulation in E. coli (in words) (E. coli MG1655 [2]): do not accumulate
- activity against E. coli (in words) (E. coli MG1655 [4]): no activity

SMILES: Cc1cc(=O)n(C)c2c3c4c(cc12)c(C)cc(=O)n4CCO3 [Compound 6DNM]
- activity against expanded panel of Gram-negative pathogens (in words) [1]: no notable activity
- accumulation in E. coli (E. coli MG1655 [2]): 298 nmol/10^12 CFUs
- MIC (E. coli MG1655 [4]; MG1655, read-out: MIC versus E. coli): > 32 µg/mL
- MIC (Staphylococcus aureus; Staphylococcus aureus, microdilution broth, MH broth, read-out: MIC against Staphylococcus aureus): 0.06 to 1 µg/mL (≈ 0.202 to 3.37 µM)

SMILES: Cc1cc(=O)n(C)c2c3c4c(cc12)c(C)cc(=O)n4C(CC(=O)O)CO3 (centres unmarked) [Compound 6DNM-acid]
- accumulation in E. coli (in words) (E. coli MG1655 [2]): do not accumulate
- activity against E. coli (in words) (E. coli MG1655 [4]): no activity

SMILES: O=C(O)c1cn(C2CC2)c2cc(N3CCNCC3)c(F)cc2c1=O [ciprofloxacin, reference compound]
- reduction of CFUs during accumulation assay (factor) (E. coli MG1655 [2]; treatment for 10 minutes, 50 μM): five
- accumulation in ΔompR strain compared to parental/WT strain [3]: significant decrease in accumulation

SMILES: CO[C@@H]1[C@@H](OC(N)=O)[C@@H](O)[C@H](Oc2ccc3c(O)c(NC(=O)c4ccc(O)c(CC=C(C)C)c4)c(=O)oc3c2C)OC1(C)C [novobiocin, reference compound]
- accumulation upon co-treatment with colistin (E. coli MG1655 [2]): increase in accumulation

SMILES: CO[C@H]1/C=C/O[C@@]2(C)Oc3c(C)c(O)c4c(O)c(c(/C=N/N5CCN(C)CC5)c(O)c4c3C2=O)NC(=O)/C(C)=C\C=C\[C@H](C)[C@H](O)[C@@H](C)[C@@H](O)[C@@H](C)[C@H](OC(C)=O)[C@@H]1C [rifampicin, reference compound]
- accumulation upon co-treatment with colistin (E. coli MG1655 [2]): increase in accumulation

SMILES: NC1COC2C(O)COC12 (centres unmarked) [Compound 20, mono-amine isomannide]
- accumulation in E. coli (in words) (E. coli MG1655 [2]): does not accumulate
